In assay [1] the target is T1, GPR35 (Homo sapiens, UniProt Q9HC97). Kind of assay: Tango β-arrestin translocation gene reporter assay in U2OS-GPR35-bla cells. Further details: host or cells: U2OS (Tango U2OS-GPR35-bla). Type of assay: cell-based. To be noted: for Potency EC50, Tango / EC50: β-arrestin translocation, tested up to 1mM, mean ± S.D.; for Potency EC50, Tango: n = 4; for Efficacy Tango (%zaprinast): normalized to maximal response of zaprinast (100%); for EC50: n = 4, read-out: Potency EC50, Tango. As to the method:
(§1) Tango assays were performed in engineered U2OS-GPR35-bla cell line. This cell line permits an endpoint measurement of the activity of agonists specific to the GPR35 activation-induced β-arrestin translocation. Specifically, 10000 U2OS-GPR35-bla cells per well were seeded in 384-well, black-wall, clear bottom assay plates with low fluorescence background (Corning). After overnight culture, the cells were stimulated with ligands for 5 h at 37 °C under 5% CO2, and then loaded with the cell permeable LiveBLAzer™ fluorescence resonance energy transfer (FRET) B/G substrate. After 2 h incubation the coumarin to fluorescein ratio was measured using Victor 4 plate reader (PerkinElmer, Waltham, MA, USA).
Target sequence in this assay (Q9HC97 whole entry, species assumed): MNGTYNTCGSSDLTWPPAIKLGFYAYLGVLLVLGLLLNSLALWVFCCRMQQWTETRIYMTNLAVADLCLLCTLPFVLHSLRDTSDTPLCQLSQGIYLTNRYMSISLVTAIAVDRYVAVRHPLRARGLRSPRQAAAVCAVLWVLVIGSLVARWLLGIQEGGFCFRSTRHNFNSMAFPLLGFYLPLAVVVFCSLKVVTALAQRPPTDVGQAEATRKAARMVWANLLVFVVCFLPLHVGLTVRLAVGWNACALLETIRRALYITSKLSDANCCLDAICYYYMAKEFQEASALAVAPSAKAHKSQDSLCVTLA

Assay [2] concerns the target T1, GPR35. Description: DMR agonist assay in native HT-29 cells. Type of assay: cell-based. The arrangement: label-free DMR assays in both native HT-29 and engineered U2OS-GPR35-bla cells; host or cells: HT-29. The note with it: for Potency EC50, DMR / EC50: mean ± S.D.; for Potency EC50, DMR: n = 4; for Efficacy DMR: maximal DMR amplitude; for EC50: n = 4, read-out: Potency EC50, DMR. As to the method:
(§2) DMR assays were performed using an Epic® system (Corning Inc., Corning, NY, USA). This system records a ligand-induced dynamic mass redistribution (DMR) signal of live cells as a shift in resonant wavelength (in picometer, pm) of a resonant waveguide grating biosensor. The DMR signal obtained is a real-time kinetic response that provides a holistic view of ligand-receptor interaction(s) and its functional consequence in the cells. For HT-29 cells 30,000 cells per well were seeded into 384well Epic® biosensor plates (Corning) and cultured overnight. For U2OS and U2OS-GPR35-bla cells 18,000 cells per well were seeded and cultured overnight. These cells were then washed twice using a plate washer, maintained with Hank’s balanced salt solution (1 × HBSS) and further incubated inside the Epic® system for 1 h. DMR agonist profiling proceeds with a 2-min baseline, followed by compound addition and monitoring the compound-induced responses for about 1 h. […] All DMR signals were background corrected.
Target sequence in this assay (Q9HC97 whole entry): as the sequence (Q9HC97 whole entry, species assumed) above

Assay [3] concerns the target T1, GPR35. Description: ML-145 inhibition of Tango signals of agonists at a fixed dose in U2OS-GPR35-bla cells. Format: cell-based. Further details: host or cells: U2OS (Tango U2OS-GPR35-bla). To be noted: label = agonist at fixed dose: 10 μM zaprinast, 10 μM YE210, 50 μM gallic acid, 10 μM pyrogallol, 32 μM benserazide, 250 μM 3-methoxycatechol. As to the method: as §1
Target sequence in this assay (Q9HC97 whole entry, species assumed): as above

The target in assay [4] is T1, GPR35. Kind of assay: DMR antagonist assay in HT-29 cells (preincubation with antagonist, then agonist at fixed dose). Type of assay: cell-based. The note with it: 500 μM catechol; for Blockage of the agonist-induced DMR by ML-145: label = agonist at fixed dose: 64 μM propyl gallate, 200 or 100 μM syringic acid, 16 μM benserazide, 20 μM (+)-taxifolin, 100 μM fenoldopam; for Effect of antagonist on the catechol DMR: label = antagonist. The arrangement: label-free DMR assays in both native HT-29 and engineered U2OS-GPR35-bla cells; host or cells: HT-29. As to the method:
as §2
Target sequence in this assay (Q9HC97 whole entry): as the sequence (Q9HC97 whole entry, species assumed) above

Assay [5] has as its system parental U2OS cells. Description: DMR agonist assay in parental U2OS cells. Format: cell-based. To be noted: parental U2OS cells without GPR35. As to the method: as §2
The target of assay [6] is T1, GPR35. Description: DMR agonist assay in engineered U2OS-GPR35-bla cells. Format: cell-based. Further details: host or cells: U2OS (Tango U2OS-GPR35-bla). The note with it: DMR amplitude at 8min poststimulation; n = 4. As to the method: as §2
Target sequence in this assay (Q9HC97 whole entry, species assumed): as above
The target of assay [7] is T1, GPR35. The note with it: previously found; cited from earlier work.
Target sequence in this assay (Q9HC97 whole entry): as the sequence (Q9HC97 whole entry, species assumed) above

Each structure is given as a SMILES string.

Turning to `COc1ccc(C=CC(=O)O)cc1OC` [3,4-Dimethoxycinnamic acid, 3,4-dimethoxycinnamic acid], the “Potency EC50, Tango” value in assay [1] was “inactive”. Moreover, in assay [2], the “Potency EC50, DMR” value was “inactive”.

On to `COc1cccc(O)c1O` [3-Methoxycatechol, 3-methoxycatechol], for which, in assay [1], the “Efficacy Tango (%zaprinast)” value was 41 ± 3 %zaprinast and the EC50 was found to be 80.7 ± 6.3 µM. Also, the “Blockage of the agonist Tango signal by ML-145” value in assay [3] is “dose-dependently blocked”. For the same molecule, in assay [2], the “Efficacy DMR” value worked out at 219 pm and the EC50 was 147 ± 15 µM.

With `O=C1c2c(O)cc(O)cc2O[C@H](c2ccc(O)c(O)c2)[C@H]1O` [(+)-Taxifolin, (+)-taxifolin], in assay [1], the “Efficacy Tango (%zaprinast)” value is reported as more than 8 %zaprinast and the “Potency EC50, Tango” value is on record as “weak”. For the same molecule, in assay [2], the “Efficacy DMR” value came to 170 pm and the 50% effective concentration (EC50) amounted to 6.6 ± 0.5 µM. Further, the “Blockage of the agonist-induced DMR by ML-145” value in assay [4] is “completely blocked”.

Turning to `Oc1cc(O)c2c(c1)O[C@@H](c1ccc(O)c(O)c1)[C@H](O)C2` [(−)-Catechin, (−)-catechin], the “Potency EC50, Tango” value in assay [1] was “inactive”. Besides, the “Potency EC50, DMR” value in assay [2] was “inactive”.

As to `NC(CO)C(=O)NNCc1ccc(O)c(O)c1O` (stereo not drawn) [Benserazide], the “DMR activity in the parental U2OS cells” value in assay [5] is “inactive”. The response in assay [6] was half-maximal at 1 ± 0.13 µM (EC50). Further, in assay [1], the “Efficacy Tango (%zaprinast)” value came to 48 ± 4 %zaprinast and the half-maximal effective concentration (EC50) turned out to be 7.5 ± 0.6 µM. For the same molecule, the “Blockage of the agonist Tango signal by ML-145” value in assay [3] was “dose-dependently blocked”. In addition, in assay [2], the “Efficacy DMR” value is on record as 296 pm and the EC50 amounted to 11 ± 0.9 µM. The “Blockage of the agonist-induced DMR by ML-145” value in assay [4] is reported as “partially blocked”.

Turning to `Oc1ccccc1O` [Catechol, catechol], in assay [1], the “Efficacy Tango (%zaprinast)” value is on record as 0 %zaprinast and the “Potency EC50, Tango” value is “inactive”. In addition, in assay [2], the “Efficacy DMR” value is 207 pm and the EC50 is 319 ± 27 µM. For the same molecule, the “Blockage of the agonist-induced DMR by ML-145” value in assay [4] is recorded as “completely blocked”.

Regarding `Oc1ccc(C2CNCCc3c2cc(O)c(O)c3Cl)cc1` (stereo not drawn) [Fenoldopam, fenoldopam, reference compound], in assay [1], the “Efficacy Tango (%zaprinast)” value is reported as 0 %zaprinast and the “Potency EC50, Tango” value was “inactive”. Moreover, in assay [2], the “Efficacy DMR” value is 268 pm and the concentration giving a half-maximal response (EC50) was 206 ± 19 µM. Besides, the “Blockage of the agonist-induced DMR by ML-145” value in assay [4] was “completely blocked”.

On to `O=C(O)c1cc(O)c(O)c(O)c1` [Gallic acid, gallic acid, reference compound], for which the “Efficacy Tango (%zaprinast)” value in assay [1] turned out to be 77 ± 5 %zaprinast. The 50% effective concentration (EC50) in assay [1] was 12.6 ± 1 µM; in assay [2], 1.16 ± 0.09 µM. Moreover, the “Blockage of the agonist Tango signal by ML-145” value in assay [3] was “dose-dependently blocked”.

For the molecule `CCCOC(=O)c1cc(O)c(O)c(O)c1` [Propyl gallate, propyl gallate], in assay [1], the “Efficacy Tango (%zaprinast)” value is given as more than 8 %zaprinast and the “Potency EC50, Tango” value was “weak”. In assay [2], the “Efficacy DMR” value is reported as 210 pm and the EC50 is 20.2 ± 1.9 µM. Besides, the “Blockage of the agonist-induced DMR by ML-145” value in assay [4] is “completely blocked”.

As to `Oc1cccc(O)c1O` [Pyrogallol, pyrogallol], in assay [1], the “Efficacy Tango (%zaprinast)” value worked out at 113 ± 5 %zaprinast and the concentration giving a half-maximal response (EC50) was 4.5 ± 0.4 µM. The “Blockage of the agonist Tango signal by ML-145” value in assay [3] was “dose-dependently blocked”. Besides, in assay [2], the “Efficacy DMR” value came out at 210 pm and the concentration for a half-maximal effect (EC50) came out at 1.3 ± 0.1 µM.

On to `COc1cc(C(=O)O)cc(OC)c1O` [Syringic acid, syringic acid], for which, in assay [1], the “Efficacy Tango (%zaprinast)” value is more than 10 %zaprinast and the “Potency EC50, Tango” value is “weak”. Besides, in assay [2], the “Efficacy DMR” value is on record as 151 pm and the half-maximal effective concentration (EC50) is 147 ± 23 µM. In addition, in assay [4], the “Blockage of the agonist-induced DMR by ML-145” value is on record as “completely blocked”.

With `Cc1c(C(=O)O)sc2c(Br)csc12` [YE210], the “Blockage of the agonist Tango signal by ML-145” value in assay [3] was “dose-dependently blocked”.

As to `CC(C)NCC(O)COc1ccc(CCOCC2CC2)cc1` (stereo not drawn) [betaxolol, reference compound], the “Effect of antagonist on the catechol DMR” value in assay [4] is on record as “neither the β-adrenergic receptor antagonist betaxolol nor α2-adrenergic receptor antagonist yohimbine had any obvious effects”.

As to `O=C(O)/C=C/c1ccc(O)c(O)c1` [caffeic acid], in assay [7], the “GPR35 agonist activity (DMR in HT-29), in words” value was “weak partial agonist”.

Regarding `COC(=O)[C@@H]1[C@H]2C[C@H]3c4[nH]c5ccccc5c4CCN3C[C@@H]2CC[C@@H]1O` [yohimbine, reference compound], the “Effect of antagonist on the catechol DMR” value in assay [4] was “neither the β-adrenergic receptor antagonist betaxolol nor α2-adrenergic receptor antagonist yohimbine had any obvious effects”.

`CCCOc1ccccc1-c1nc2nn[nH]c2c(=O)[nH]1` [zaprinast, Zaprinast]: in assay [5], the “DMR activity in the parental U2OS cells” value was “inactive”. The “Blockage of the agonist Tango signal by ML-145” value in assay [3] was “dose-dependently blocked”.

(Values after PMC3816702, “The Three Catecholics Benserazide, Catechol and Pyrogallol are GPR35 Agonists” (Pharmaceuticals, 2013).)
